Measured values reported in publication PMC6222691, “Isoxazolidine Conjugates of N3-Substituted 6-Bromoquinazolinones—Synthesis, Anti-Varizella-Zoster Virus, and Anti-Cytomegalovirus Activity” (Molecules : A Journal of Synthetic Chemistry and Natural …, 2018).
In brackets after ≈: the same amount, converted by molar mass. Read-outs that look alike come from different tables or passages of the source.

Columns and labels:
[1] = test system: PI4KIIIα; set-up: method as in PMID 23944386; details: cited from earlier work
[2] = test system: human cytomegalovirus AD-169 Strain; assay: Antiviral activity against human cytomegalovirus AD-169 strain in HEL cell cultures; format: cell-based
[3] = test system: murine leukemia (L1210); assay: Inhibition of proliferation of murine leukemia L1210 cells; format: cell-based; details: Mus musculus, L1210, 48 h, read-out: IC50 L1210
[4] = test system: immortalized human dermal microvascular endothelial cells (HMEC-1); assay: Inhibition of proliferation of HMEC-1 cells; format: cell-based; details: HMEC-1, read-out: IC50 HMEC-1
[5] = test system: a wide variety of DNA and RNA viruses; assay: Antiviral screening against a wide variety of DNA and RNA viruses; format: cell-based
[6] = test system: human cytomegalovirus Davis Strain; assay: Antiviral activity against human cytomegalovirus Davis strain in HEL cell cultures; format: cell-based
[7] = test system: human cervix carcinoma (HeLa); assay: Inhibition of proliferation of human cervix carcinoma HeLa cells; format: cell-based; details: 96 h, read-out: IC50 HeLa
[8] = test system: TK− VZV Strain (07-1); assay: microbe, parasite or virus in culture; format: cell-based, varicella-zoster virus; details: Human alphaherpesvirus 3, HEL, read-out: Antiviral Activity EC50 TK− VZV Strain (07-1)
[9] = test system: HEL cells; details: minimum cytotoxic concentration
[10] = test system: human T-lymphocyte (CEM); assay: Inhibition of proliferation of human T-lymphocyte CEM cells; format: cell-based; details: 72 h, read-out: IC50 CEM
[11] = test system: TK+ VZV Strain (OKA); assay: microbe, parasite or virus in culture; format: cell-based, varicella-zoster virus; details: Human alphaherpesvirus 3, HEL, read-out: Antiviral Activity EC50 TK+ VZV Strain (OKA)
[12] = test system: L1210, CEM, HeLa, HMEC-1 cell lines; assay: Cytostatic activity against the tested cell lines; format: cell-based
[13] = in vitro; details: human
[14] = test system: human cytomegalovirus (HCMV); assay: Antiviral activity against HCMV, AD-169 and Davis strains (text summaries); format: cell-based; details: Human betaherpesvirus 5, AD169; HEL cells; both AD-169 and Davis strains; read-out: EC50 against HCMV (range over AD-169 and Davis strains)
[15] = test system: herpes simplex virus 2 (HSV-2); set-up: method as in PMID 21969760; details: cited from earlier work
[16] = test system: vaccinia virus (VACV); details: cited from earlier work
[17] = test system: herpes simplex virus 1 (HSV-1); set-up: method as in PMID 21969760; details: cited from earlier work
[18] = test system: vaccinia virus; details: E6SM cell cultures; cited from earlier work
[19] = test system: tobacco mosaic virus (TMV); set-up: method as in PMID 18259148; details: in vivo; cited from earlier work
[20] = test system: influenza A virus (H5N1); details: cited from earlier work
[21] = Human betaherpesvirus 5, AD169, HEL; read-out: Antiviral Activity EC50 AD-169 Strain
[22] = Human betaherpesvirus 5, HEL; read-out: Antiviral Activity EC50 Davis Strain

COc1ncc(-c2ccc3nc(N)n(-c4ccccc4C(F)(F)F)c(=O)c3c2)cc1S(=O)(=O)Nc1ccc(F)cc1F (atropisomer, axis not shown; (aS)) [(aS)-9]
pIC50 PI4KIIIα [1]: 8.3

CCOP(=O)(OCC)[C@H]1C[C@@H](c2nc3ccc(Br)cc3c(=O)[nH]2)ON1C (relative stereo) [cis-11a, Diethyl cis-[5-(6-bromo-4-oxo-3,4-dihydroquinazolin-2-yl)-2-methylisoxazolidin-3-yl]phosphonate]
EC50 [2, 21]: > 100 µM
IC50 [3]: > 250 µM
IC50 [4]: 140 ± 54 µM
Activity against tested viruses (in words) [5]: not active
EC50 [6, 22]: 100 µM
IC50 [7]: > 250 µM
EC50 [8]: > 100 µM
Cytotoxicity Cell Morphology MCC ([9]; Table 2 (VZV experiments)): >100 μM
Cytotoxicity Cell Morphology MCC ([9]; Table 3 (HCMV experiments)): 20 μM
IC50 [10]: 242 ± 7 µM
EC50 [11]: > 100 µM
Inhibition of proliferation of the tested cell lines (in words) [12]: did not inhibit proliferation

CCOP(=O)(OCC)[C@H]1C[C@H](c2nc3ccc(Br)cc3c(=O)[nH]2)ON1C (relative stereo) [trans-11a, Diethyl trans-[5-(6-bromo-4-oxo-3,4-dihydroquinazolin-2-yl)-2-methylisoxazolidin-3-yl]phosphonate]
EC50 [2, 21]: > 100 µM
IC50 [3]: 126 ± 19 µM
IC50 [4]: 85 ± 13 µM
Activity against tested viruses (in words) [5]: not active
EC50 [6, 22]: > 100 µM
IC50 [7]: 196 ± 20 µM
EC50 [8]: 66.9 µM
Cytotoxicity Cell Morphology MCC ([9]; Table 2 (VZV experiments)): >100 μM
Cytotoxicity Cell Morphology MCC ([9]; Table 3 (HCMV experiments)): 100 μM
IC50 [10]: 148 ± 2 µM
EC50 [11]: > 100 µM
Inhibition of proliferation of the tested cell lines (in words) [12]: did not inhibit proliferation

CCOP(=O)(OCC)[C@H]1C[C@H](c2nc3ccc(Br)cc3c(=O)n2Cc2ccc([N+](=O)[O-])cc2)ON1C (relative stereo) [trans-11e, Diethyl trans-{5-[6-bromo-3-(4-nitrobenzyl)-4-oxo-3,4-dihydroquinazolin-2-yl]-2-methylisoxazolidin-3-yl}phosphonate]
EC50 [2, 21]: > 20 µM
IC50 [3]: 18 µM
IC50 [4]: 26 ± 6 µM
EC50 [6, 22]: > 20 µM
IC50 [7]: 24 ± 9 µM
EC50 [8]: 7.51 µM
Cytotoxicity Cell Morphology MCC ([9]; Table 2 (VZV experiments)): 20 μM
Cytotoxicity Cell Morphology MCC ([9]; Table 3 (HCMV experiments)): 100 μM
IC50 [10]: 17 ± 12 µM
EC50 [11]: 6.84 µM

CCOP(=O)(OCC)[C@H]1C[C@H](c2nc3ccc(Br)cc3c(=O)n2C)ON1C (relative stereo) [trans-11j, Diethyl trans-{5-[6-bromo-3-methyl-4-oxo-3,4-dihydroquinazolin-2-yl]-2-methylisoxazolidin-3-yl}phosphonate]
EC50 [2, 21]: > 20 µM
IC50 [3]: 138 ± 19 µM
IC50 [4]: > 250 µM
Activity against tested viruses (in words) [5]: not active
EC50 [6, 22]: > 100 µM
IC50 [7]: 175 ± 105 µM
EC50 [8]: > 4 µM
Cytotoxicity Cell Morphology MCC ([9]; Table 2 (VZV experiments)): 20 μM
Cytotoxicity Cell Morphology MCC ([9]; Table 3 (HCMV experiments)): 20 μM
IC50 [10]: 128 ± 21 µM
EC50 [11]: > 4 µM
Inhibition of proliferation of the tested cell lines (in words) [12]: did not inhibit proliferation

CCOP(=O)(OCC)[C@H]1C[C@H](c2nc3ccc(Br)cc3c(=O)n2CC)ON1C (relative stereo) [trans-11k, Diethyl trans-{5-[6-bromo-3-ethyl-4-oxo-3,4-dihydroquinazolin-2-yl]-2-methylisoxazolidin-3-yl}phosphonate]
EC50 [2, 21]: > 20 µM
Activity against tested viruses (in words) [5]: not active
EC50 [6, 22]: 44.7 µM
EC50 [8]: > 20 µM
Cytotoxicity Cell Morphology MCC ([9]; Table 2 (VZV experiments)): 100 μM
Cytotoxicity Cell Morphology MCC ([9]; Table 3 (HCMV experiments)): 20 μM
EC50 [11]: > 20 µM
Inhibition of proliferation of the tested cell lines (in words) [12]: did not inhibit proliferation

O=c1[nH]cc(F)c(=O)[nH]1 [5-Fluorouracil, reference compound]
IC50 ([3]; cell proliferation, two days): 0.33 ± 0.17 µM
IC50 ([7]; cell proliferation, four days): 0.54 ± 0.12 µM
IC50 ([10]; cell proliferation, three days): 18 ± 5 µM

Nc1nc2c(ncn2COCCO)c(=O)[nH]1 [Acyclovir]
CC50 [13]: > 350 µM

O=c1[nH]c(=O)n([C@H]2C[C@H](O)[C@@H](CO)O2)cc1/C=C/Br [Brivudin, reference compound]
CC50 [13]: > 300 µM
EC50 [8]: 31.9 ± 16.1 µM
Cytotoxicity Cell Morphology MCC ([9]; Table 2 (VZV experiments)): >300 μM
EC50 [11]: 0.023 ± 0.008 µM

Nc1ccn(C[C@@H](CO)OCP(=O)(O)O)c(=O)n1 [Cidofovir, reference compound]
EC50 [2, 21]: 1.5 ± 0.2 µM
CC50 [13]: > 300 µM
EC50 [14]: 1.5 to 1.7 µM
EC50 [6, 22]: 1.7 ± 0.4 µM
Cytotoxicity Cell Morphology MCC ([9]; Table 3 (HCMV experiments)): >300 μM

Nc1nc(O)c2ncn(COC(CO)CO)c2n1 [Ganciclovir, reference compound]
EC50 ([2]; Human betaherpesvirus 5, AD169, HEL, read-out: Antiviral Activity EC50 AD-169 Strain): 16.9 ± 6.9 µM
CC50 [13]: > 350 µM
EC50 ([6]; Human betaherpesvirus 5, HEL, read-out: Antiviral Activity EC50 Davis Strain): 7.7 ± 0.9 µM
Cytotoxicity Cell Morphology MCC ([9]; Table 3 (HCMV experiments)): >350 μM

O=C(O)c1cc(Br)ccc1-n1c(-c2ccccc2)nc2ccc(Br)cc2c1=O [compound 1, 5-bromo-2-(6-bromo-4-oxo-2-phenyl-4H-quinazolin-3-yl)-benzoic acid]
EC50 HSV-2 [15]: 12 µg/mL (≈ 24 µM)
EC50 vaccinia virus (VACV) [16]: 12 µg/mL (≈ 24 µM)
EC50 HSV-1 [17]: 12 µg/mL (≈ 24 µM)

CCc1nc(-n2c(-c3ccccc3)nc3ccc(Br)cc3c2=O)nc(N)c1-c1ccc(Cl)cc1 [compound 2]
MIC vaccinia virus [18]: 1.92 µg/mL (≈ 3.6 µM)

Cc1nc2ccc(Br)cc2c(=O)n1/N=C/c1ccccc1C(F)(F)F [compound 3, 2-methyl-3-(substituted-benzalamino)-4(3H)-quinazolinone]
curative effects against TMV [19]: 54%

Cc1ccc(C(=O)/C=C/c2nc3ccc(I)cc3c(=O)n2-c2cccc(C(F)(F)F)c2)cc1 [compound 4]
inhibition rate against H5N1 [20]: 38%

CCNC(=S)N/N=C/c1nc2ccc(I)cc2c(=O)n1-c1cccc(C(F)(F)F)c1 [compound 5]
inhibition rate against H5N1 [20]: 47%

O=C(N/N=C/c1nc2ccc(I)cc2c(=O)n1-c1cccc(C(F)(F)F)c1)c1ccncc1 [compound 6]
inhibition rate against H5N1 [20]: 25%
